Data on 15 compounds can be found in patent US8598154B2 (Corcept Therapeutics, Inc., priority 2010, dated 2013).

In assay [1] the target is T1, glucocorticoid receptors (GR) in SW1353/MMTV-5 cells (Homo sapiens, UniProt P04150).
T1 construct: contains endogenous glucocorticoid receptors; endogenous in cells; host or cells: SW1353/MMTV-5 (human chondrosarcoma, stably transfected with the pMAMneo-Luc reporter only)
T1 sequence (P04150 1-777): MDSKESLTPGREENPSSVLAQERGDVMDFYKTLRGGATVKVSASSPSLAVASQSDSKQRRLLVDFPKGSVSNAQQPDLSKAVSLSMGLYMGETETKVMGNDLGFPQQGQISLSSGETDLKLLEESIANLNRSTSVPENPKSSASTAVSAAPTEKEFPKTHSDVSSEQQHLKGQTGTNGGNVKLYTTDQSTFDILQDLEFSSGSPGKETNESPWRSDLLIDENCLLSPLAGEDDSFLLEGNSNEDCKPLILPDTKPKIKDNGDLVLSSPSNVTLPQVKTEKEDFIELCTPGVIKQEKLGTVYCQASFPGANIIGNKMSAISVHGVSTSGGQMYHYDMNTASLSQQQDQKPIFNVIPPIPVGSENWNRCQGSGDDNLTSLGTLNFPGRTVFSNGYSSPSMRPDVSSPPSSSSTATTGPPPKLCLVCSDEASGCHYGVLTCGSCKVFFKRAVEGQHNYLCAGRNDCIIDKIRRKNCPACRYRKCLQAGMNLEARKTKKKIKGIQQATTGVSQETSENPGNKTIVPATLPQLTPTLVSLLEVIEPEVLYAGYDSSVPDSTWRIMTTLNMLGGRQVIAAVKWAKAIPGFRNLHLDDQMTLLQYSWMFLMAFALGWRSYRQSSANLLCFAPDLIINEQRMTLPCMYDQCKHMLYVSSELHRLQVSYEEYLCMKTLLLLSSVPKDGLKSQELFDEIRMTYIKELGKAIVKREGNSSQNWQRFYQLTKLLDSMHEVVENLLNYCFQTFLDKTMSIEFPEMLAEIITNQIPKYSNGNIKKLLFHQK
In words: GR functional assay using SW1353/MMTV-5 cells (MMTV-luciferase reporter). It is filed as cell-based. On the procedure: SW1353/MMTV-5 is an adherent human chondrosarcoma cell line that contains endogenous glucocorticoid receptors. It was transfected with a plasmid (pMAMneo-Luc) encoding firefly luciferase located behind a glucocorticoid-responsive element (GRE) derived from a viral promoter (long terminal repeat of mouse mammary tumor virus). A stable cell line SW1353/MMTV-5 was selected with geneticin, which was required to maintain this plasmid.
SW1353/MMTV-5 cells were distributed in 96-well plates and incubated in medium (without geneticin) for 24 hrs (in the absence of CO2).
For orientation: Reporter assays use an easily measured gene product as a stand-in for the process of interest.

Assay [2] deals with T2, Human Recombinant Glucocorticoid Receptor (Homo sapiens, UniProt P04150).
T2 construct: This GR was a full-length steroid hormone receptor likely to be associated with heat-shock and other endogenous proteins; host or cells: baculovirus-infected insect cells
T2 sequence (P04150 1-777): T1 sequence (P04150 1-777)
Briefly: Glucocorticoid receptor binding displacement assay with 3H-dexamethasone. As to conditions: displacement of 2.5 nM 3H-dexamethasone; Ki from IC50 by Cheng-Prusoff; read-out: GR Binding Ki. As for the experimental part: The source of the receptor was recombinant baculovirus-infected insect cells. This GR was a full-length steroid hormone receptor likely to be associated with heat-shock and other endogenous proteins.
For the Primary Screen, test compounds were tested at 1 μM in duplicate. These compounds were diluted from 10 mM stock in 100% DMSO. After dilution to 100 μM, 5 μl were added to 245 μl assay buffer to obtained 2 μM compound and 2% DMSO.
For the IC50 determinations, test compounds were tested at 6 concentrations in duplicate (concentration range depends on % inhibition binding that was obtained in the Primary Screen). Test compounds were diluted from 10 mM stock in 100% DMSO. The tested solutions were prepared at 2× final assay concentration in 2% DMSO/assay buffer.
All reagents and the assay plate were kept on ice during the addition of reagents. […] After the additions, the incubation mixture was mixed and incubated for 2.5 hrs at 4° C.
After 2.5 hrs incubation, unbound counts were removed with dextran coated charcoal (DCC) as follows: 25 μl of DCC solution (10% DCC in assay buffer) was added to all wells and mixed (total volume 225 μl). The plate was centrifuged at 4000 rpm for 10 minutes at 4° C. 75 μl of the supernatants (i.e.⅓ of total volume) was carefully pipetted into an optiplate. 200 μl of scintillation cocktail were added (Microscint-40, Packard Bioscience. B.V.). The plate was vigorously shaken for approx. 10 minutes and counted on Topcount.
The IC50 values were converted to Ki (the inhibition constant) using the Cheng-Prusoff equation. Test results are presented in Tablel.
Reagents: Assay buffer: 10 mM potassium phosphate buffer pH 7.6 containing 5 mM DTT, 10 mM sodium molybdate, 100 μM EDTA and 0.1% BSA.

Some results are limits rather than exact numbers.

For the compound `O=S(=O)(c1ccc(N2CC[C@@H](F)C2)nc1)N1CCC2=Cc3c(cnn3-c3ccc(F)cc3)C[C@]2(COCC2CC2)C1` [Example 26, (R)-4a-Cyclopropylmethoxymethyl-1-(4-fluorophenyl)-6-(6-((R)-3-fluoro-pyrrolidin-1-yl)-pyridine-3-sulfonyl)-4,4a,5,6,7,8-hexahydro-1H-1,2,6-triaza-cyclopenta[b]naphthalene], the inhibition constant (Ki) was below 10 nM in assay [1] and 0.5 to 1 nM in assay [2].
The corresponding values for `O=S(=O)(c1ccc(N2CC[C@H](F)C2)nc1)N1CCC2=Cc3c(cnn3-c3ccc(F)cc3)C[C@]2(COCC2CC2)C1` [Example 27, (R)-4a-Cyclopropylmethoxymethyl-1-(4-fluorophenyl)-6-(6-((S)-3-fluoropyrrolidin-1-yl)-pyridine-3-sulfonyl)-4,4a,5,6,7,8-hexahydro-1H-1,2,6-triaza-cyclopenta[b]naphthalene] are below 10 nM and 0.5 to 1 nM.
The corresponding values for `O=S(=O)(c1ccc(N2CC[C@@H](O)C2)nc1)N1CCC2=Cc3c(cnn3-c3ccc(F)cc3)C[C@]2(COCC2CC2)C1` [Example 28, (R)-1-{5-[(R)-4a-Cyclopropylmethoxymethyl-1-(4-fluorophenyl)-1,4,4a,5,6,7,8-hexahydro-1,2,6-triaza-cyclopenta[b]naphthalene-6-sulfonyl]pyridine-2-yl}-pyrrolidine-3-ol] are 10 to 50 nM and below 0.5 nM.
The corresponding values for `O=S(=O)(c1ccc(N2CC[C@H](O)C2)nc1)N1CCC2=Cc3c(cnn3-c3ccc(F)cc3)C[C@]2(COCC2CC2)C1` [Example 29, (S)-1-{5-[(R)-4a-Cyclopropylmethoxymethyl-1-(4-fluorophenyl)-1,4,4a,5,6,7,8-hexahydro-1,2,6-triaza-cyclopenta[b]naphthalene-6-sulfonyl]pyridine-2-yl}-pyrrolidine-3-ol] are 10 to 50 nM and 0.5 to 1 nM.
For `O=S(=O)(c1ccc(N2CC(F)C2)nc1)N1CCC2=Cc3c(cnn3-c3ccc(F)cc3)C[C@]2(COCC2CC2)C1` [Example 30, (R)-4a-Cyclopropylmethoxymethyl-6-[6-(3-fluoroazetin-1-yl)-pyridine-3-sulfonyl]-1-(4-fluorophenyl)-1,4,4a,5,6,7,8-hexahydro-1H-1,2,6-triaza-cyclopenta[b]naphthalene], the inhibition constant (Ki) is below 10 nM in assay [1] and below 0.5 nM in assay [2].
For `O=S(=O)(c1ccc(N2CC(O)C2)nc1)N1CCC2=Cc3c(cnn3-c3ccc(F)cc3)C[C@]2(COCC2CC2)C1` [Example 31, 1-{5-[(R)-4a-Cyclopropylmethoxymethyl-1-(4-fluorophenyl)-1,4,4a,5,6,7,8-hexahydro-1,2,6-triaza-cyclopenta[b]naphthalene-6-sulfonyl]-pyridin-2-yl}-azetidin-3-ol] the same measures were 10 to 50 nM and 0.5 to 1 nM.
For `O=S(=O)(c1ccc(N2CCOCC2)nc1)N1CCC2=Cc3c(cnn3-c3ccc(F)cc3)C[C@]2(COCC2CC2)C1` [Example 32, (R)-4a-Cyclopropylmethoxymethyl-1-(4-fluorophenyl)-6-(6-morpholin-4-yl-pyridine-3-sulfonyl)-4,4a,5,6,7,8-hexahydro-1H-1,2,6-triaza-cyclopenta[b]naphthalene] the same measures were below 10 nM and 0.5 to 1 nM.
Take `COCCOC[C@]12Cc3cnn(-c4ccc(F)cc4)c3C=C1CCN(S(=O)(=O)c1ccc(N3CC[C@@H](F)C3)nc1)C2` [Example 33, (R)-1-(4-Fluorophenyl)-6-[6-((R)-3-fluoropyrrolidin-1-yl)-pyridine-3-sulfonyl]-4a-(2-methoxyethoxymethyl)-4,4a,5,6,7,8-hexahydro-1H-1,2,6-triaza-cyclopenta[b]naphthalene]: the Ki was below 10 nM in assay [1] and 0.5 to 1 nM in assay [2].
On to `O=S(=O)(c1ccc(N2CC[C@@H](F)C2)nc1)N1CCC2=Cc3c(cnn3-c3ccc(F)cc3)C[C@]2(COCCO)C1` [Example 34, 2-{(R)-1-(4-Fluorophenyl)-6-[6-((R)-3-fluoropyrrolidin-1-yl)-pyridine-3-sulphonyl]-1,4,5,6,7,8-hexahydro-1,2,6-triaza-cyclopenta[b]naphthalene-4a-ylmethoxy}-ethanol], for which the inhibition constant Ki is above 50 nM in assay [1] and above 1 nM in assay [2].
For `Cc1cc(COC[C@]23Cc4cnn(-c5ccc(F)cc5)c4C=C2CCN(S(=O)(=O)c2ccc(N4CC[C@@H](F)C4)nc2)C3)no1` [Example 35, (R)-1-(4-Fluorophenyl)-6-[6-((R)-3-fluoropyrrolidin-1-yl)-pyridine-3-sulfonyl]-4a-(5-methyl-isoxazol-3-ylmethoxymethyl)-4,4a,5,6,7,8-hexahydro-1H-1,2,6-triaza-cyclopenta[b]naphthalene] the same measures were 10 to 50 nM and above 1 nM.
The corresponding values for `COC[C@]12Cc3cnn(-c4ccc(F)cc4)c3C=C1CCN(S(=O)(=O)c1cncc(N3CC(O)C3)c1)C2` [Example 36, 1-{5-[(R)-1-(4-Fluorophenyl)-4a-methoxymethyl-1,4,4a,5,6,7,8-hexahydro-1,2,6-triaza-cyclopenta[b]naphthalene-6-sulfonyl]-pyridin-3-yl}-azetidin-3-ol] are above 50 nM and 0.5 to 1 nM.
On to `COC[C@]12Cc3cnn(-c4ccc(F)cc4)c3C=C1CCN(S(=O)(=O)c1cncc(N3CC(F)C3)c1)C2` [Example 37, (R)-6-[5-(3-Fluoroazetidin-1-yl)-pyridine-3-sulfonyl]-1-(4-fluorophenyl)-4a-methoxymethyl-4,4a,5,6,7,8-hexahydro-1H-1,2,6-triaza-cyclopenta[b]naphthalene], for which the results for the inhibition constant (Ki) in assay [1] and in assay [2] were below 10 nM and 0.5 to 1 nM, respectively.
On to `COC[C@]12Cc3cnn(-c4ccc(F)cc4)c3C=C1CCN(S(=O)(=O)c1cncc(N3CC[C@@H](O)C3)c1)C2` [Example 38, (R)-1-{5-[(R)-1-(4-Fluorophenyl)-4a-methoxymethyl-1,4,4a,5,6,7,8-hexahydro-1,2,6-triaza-cyclopenta[b]naphthalene-6-sulfonyl]pyridine-3-yl}-pyrrolidine-3-ol], for which the figures for the inhibitory constant (Ki) in assay [1] and in assay [2] were 10 to 50 nM and 0.5 to 1 nM, respectively.
The corresponding values for `COC[C@]12Cc3cnn(-c4ccc(F)cc4)c3C=C1CCN(S(=O)(=O)c1cncc(N3CC[C@H](O)C3)c1)C2` [Example 39, (S)-1-{5-[(R)-1-(4-Fluorophenyl)-4a-methoxymethyl-1,4,4a,5,6,7,8-hexahydro-1,2,6-triaza-cyclopenta[b]naphthalene-6-sulfonyl]pyridine-3-yl}-pyrrolidine-3-ol] are above 50 nM and 0.5 to 1 nM.
For `COC[C@]12Cc3cnn(-c4ccc(F)cc4)c3C=C1CCN(S(=O)(=O)c1cncc(N3CC[C@@H](F)C3)c1)C2` [Example 40, (R)-1-(4-Fluorophenyl)-6-[5-((R)-3-fluoropyrrolidin-1-yl)-pyridine-3-sulfonyl]-4a-methoxymethyl-4,4a,5,6,7,8-hexahydro-1H-1,2,6-triaza-cyclopenta[b]naphthalene] the same measures were below 10 nM and above 1 nM.

For orientation: Ki means a dissociation constant, usually derived from enzyme kinetics or from competition with a known ligand.
